Measured values taken from patent US20250215039A1, “NUCLEOSIDES FOR TREATING CANCER” (PRIMEFOUR THERAPEUTICS, INC., priority 2022, published 2025).
Like-named read-outs stand apart in the source and are kept apart here.

Test system: cancer cell lines
Experiment: Cancer cell proliferation activity (CellTiterGlo, 72 h)
Format: cell-based
Conditions: 72 h, 72 h, read-out: IC50
How it was run: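 Readout is CellTiterGlo luminescence after 72 h compound exposure (0.1% DMSO final), started one day post-seeding, at 37 °C.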

SMILES: Nc1nc(F)nc2c1ncn2[C@H]1C[C@H](O)[C@](CO)(CF)O1 [compound 150, (2R,3S,5R)-5-(6-amino-2-fluoro-9H-purin-9-yl)-2-(fluoromethyl)-2-(hydroxymethyl)tetrahydrofuran-3-ol]
- IC50 (5637 cell line (bladder)): 4.05 µM
- IC50 (AS49 cell line (lung)): > 50 µM
- IC50 (CLS439 cell line (bladder)): > 50 µM
- IC50 (HS729 cell line (muscle)): 12.3 µM
- IC50 (JAR cell line (placenta)): 1.74 µM
- IC50 (Homo sapiens, 22Rv1, 72 h, 22RV1 cell line (prostate)): > 50 µM
- IC50 (Homo sapiens, 786-0, 72 h, 786O cell line (kidney)): 2.06 µM
- IC50 (Homo sapiens, A204, 72 h, A204 cell line (muscle)): 3.33 µM
- IC50 (Homo sapiens, A673, 72 h, A673 cell line (bone)): > 50 µM
- IC50 (Homo sapiens, A2780, 72 h, A2780 cell line (ovary)): 4.62 µM
- IC50 (Homo sapiens, A-375, 72 h, A375 cell line (skin)): 2.32 µM
- IC50 (Homo sapiens, A-431, 72 h, A431 cell line (skin)): 2.32 µM
- IC50 (Homo sapiens, ACHN, ACHN cell line (kidney)): > 50 µM
- IC50 (Homo sapiens, ASPC1, 72 h, ASPC1 cell line (pancreas)): 2.3 µM
- IC50 (Homo sapiens, BT-20, 72 h, BT20 cell line (breast)): 2.03 µM
- IC50 (Homo sapiens, BXPC-3, 72 h, BXPC3 cell line (pancreas)): > 50 µM
- IC50 (Homo sapiens, C-33-A, C33A cell line (cervical)): 4.21 µM
- IC50 (Homo sapiens, CAKI-1, 72 h, CAKI1 cell line (kidney)): 0.32 µM
- IC50 (Homo sapiens, COLO 205, 72 h, COLO205 cell line (colon)): > 50 µM
- IC50 (Homo sapiens, COLO-678, 72 h, COLO678 cell line (colon)): > 50 µM
- IC50 (Homo sapiens, Ca-Ski, CASKI cell line (cervical)): 1.69 µM
- IC50 (Homo sapiens, Caco-2, 72 h, CACO2 cell line (colon)): 3.6 µM
- IC50 (Homo sapiens, Calu-6, 72 h, CALU6 cell line (lung)): 4.12 µM
- IC50 (Homo sapiens, DLD-1, 72 h, DLD1 cell line (colon)): > 50 µM
- IC50 (Homo sapiens, DU-145, 72 h, DU145 cell line (prostate)): 1.47 µM
- IC50 (Homo sapiens, EFO-21, 72 h, EFO21 cell line (ovary)): 3.32 µM
- IC50 (Homo sapiens, EJ-28, 72 h, EJ28 cell line (bladder)): 3.49 µM
- IC50 (Homo sapiens, Granta-519, 72 h, GRANTA-519 cell line (hematological)): 4.01 µM
- IC50 (Homo sapiens, HCT-15, 72 h, HCT15 cell line (colon)): > 50 µM
- IC50 (Homo sapiens, HCT-116, 72 h, HCT116 cell line (colon)): 2.89 µM
- IC50 (Homo sapiens, HEK293, 72 h, HEK293 cell line (kidney)): 2.46 µM
- IC50 (Homo sapiens, HL-60, 72 h, HL-60 cell line (hematological)): 3.85 µM
- IC50 (Homo sapiens, HT-29, 72 h, HT29 cell line (colon)): 1.46 µM
- IC50 (Homo sapiens, HT-1080, 72 h, HT1080 cell line (connective tissue)): > 50 µM
- IC50 (Homo sapiens, HeLa, HELA cell line (cervical)): 4.53 µM
- IC50 (Homo sapiens, HepG2, 72 h, HEPG2 cell line (liver)): 2.96 µM
- IC50 (Homo sapiens, Hs-578T, HS578T cell line, breast): 6.12 µM
- IC50 (Homo sapiens, IGROV-1, 72 h, IGROV1 cell line (ovary)): 2.03 µM
- IC50 (Homo sapiens, IMR-90, 72 h, IMR90 cell line, lung): 4.24 µM
- IC50 (Homo sapiens, J82, 72 h, J82 cell line (bladder)): 4.64 µM
- IC50 (Homo sapiens, JEG-3, 72 h, JEG3 cell line (placenta)): 2.82 µM
- IC50 (Homo sapiens, JIMT-1, 72 h, JIMT1 cell line (breast)): 1.23 µM
- IC50 (Homo sapiens, K562, 72 h, K-562 cell line (hematological)): > 50 µM
- IC50 (Homo sapiens, Kasumi 1, 72 h, KASUMI-1 cell line (hematological)): 2.16 µM
- IC50 (Homo sapiens, L-363, 72 h, L-363 cell line (hematological)): 3.36 µM
- IC50 (Homo sapiens, LoVo, LOVO cell line (colon)): 1.61 µM
- IC50 (Homo sapiens, MCF7, 72 h, MCF7 cell line (breast)): > 50 µM
- IC50 (Homo sapiens, MDA-MB-231, 72 h, MDAMB231 cell line (breast)): > 50 µM
- IC50 (Homo sapiens, MDA-MB-435, 72 h, MDAMB435 cell line (skin)): > 50 µM
- IC50 (Homo sapiens, MDA-MB-436, 72 h, MDAMB436 cell line (breast)): 3.22 µM
- IC50 (Homo sapiens, MDA-MB-468, 72 h, MDAMB468 cell line (breast)): 4.45 µM
- IC50 (Homo sapiens, MG-63, 72 h, MG63 cell line (bone)): > 50 µM
- IC50 (Homo sapiens, MHH-ES-1, 72 h, MHHES1 cell line (bone)): 2.91 µM
- IC50 (Homo sapiens, MIA PaCa-2, 72 h, MIAPACA2 cell line (pancreas)): > 50 µM
- IC50 (Homo sapiens, MINO, MINO cell line (hematological)): 1.08 µM
- IC50 (Homo sapiens, MV4-11, 72 h, MV4-11 cell line (hematological)): 0.63 µM
- IC50 (Homo sapiens, NCI-H23, 72 h, NCI-H23 cell line (lung)): 3.29 µM
- IC50 (Homo sapiens, NCI-H82, 72 h, NCIH82 cell line (lung)): 3.77 µM
- IC50 (Homo sapiens, NCI-H292, 72 h, NCIH292 cell line (lung)): > 50 µM
- IC50 (Homo sapiens, NCI-H460, 72 h, NCIH460 cell line (lung)): 3.37 µM
- IC50 (Homo sapiens, OVCAR-3, 72 h, OVCAR3 cell line (ovary)): 2.05 µM
- IC50 (Homo sapiens, OVCAR-4, 72 h, OVCAR4 cell line (ovary)): 3.52 µM
- IC50 (Homo sapiens, PANC-1, 72 h, PANC1 cell line (pancreas)): > 50 µM
- IC50 (Homo sapiens, PC-3, 72 h, PC3 cell line (prostate)): 5.77 µM
- IC50 (Homo sapiens, PLC-PRF-5, 72 h, PLCPRF5 cell line (liver)): > 50 µM
- IC50 (Homo sapiens, Panc1005, 72 h, PANC1005 cell line (pancreas)): 1.41 µM
- IC50 (Homo sapiens, RD, RD cell line (muscle)): 6.72 µM
- IC50 (Homo sapiens, Ramos, RAMOS cell line (hematological)): 2.44 µM
- IC50 (Homo sapiens, SAOS-2, 72 h, SAOS2 cell line (bone)): 3.56 µM
- IC50 (Homo sapiens, SF-268, 72 h, SF268 cell line (brain)): > 50 µM
- IC50 (Homo sapiens, SF-295, 72 h, SF295 cell line (brain)): > 50 µM
- IC50 (Homo sapiens, SK-BR-3, 72 h, SKBR3 cell line (breast)): 1.33 µM
- IC50 (Homo sapiens, SK-HEP1, 72 h, SKHEP1 cell line (liver)): > 50 µM
- IC50 (Homo sapiens, SK-LMS-1, 72 h, SKLMS1 cell line (uterus)): 2.29 µM
- IC50 (Homo sapiens, SK-MEL-5, 72 h, SKMEL5 cell line, skin): > 50 µM
- IC50 (Homo sapiens, SK-MEL-28, 72 h, SKMEL28 cell line (skin)): 9.02 µM
- IC50 (Homo sapiens, SK-N-AS, SKNAS cell line (brain)): 6.83 µM
- IC50 (Homo sapiens, SK-N-SH, SKNSH cell line (brain)): 2.91 µM
- IC50 (Homo sapiens, SK-OV-3, 72 h, SKOV3 cell line (ovary)): 3.62 µM
- IC50 (Homo sapiens, SNB-75, 72 h, SNB75 cell line (brain)): 14.9 µM
- IC50 (Homo sapiens, SU-DHL10, 72 h, SU-DHL-10 cell line (hematological)): 2.62 µM
- IC50 (Homo sapiens, SU-DHL-6, 72 h, SU-DHL-6 cell line (hematological)): 2.1 µM
- IC50 (Homo sapiens, SW-620, 72 h, SW620 cell line (colon)): 3.12 µM
- IC50 (Homo sapiens, T-24, 72 h, T24 cell line (bladder)): 6.26 µM
- IC50 (Homo sapiens, TE-671, 72 h, TE671 cell line (muscle)): 12.6 µM
- IC50 (Homo sapiens, THP-1, 72 h, THP-1 cell line (hematological)): 5.5 µM
- IC50 (Homo sapiens, U2OS, U2OS cell line (bone)): > 50 µM
- IC50 (Homo sapiens, U-87 MG, U87MG cell line (brain)): > 50 µM
- IC50 (Homo sapiens, UMUC3, 72 h, UMUC3 cell line (bladder)): > 50 µM
- IC50 (Homo sapiens, UO-31, 72 h, UO31 cell line (kidney)): 4.54 µM
- IC50 (Homo sapiens, WSU-NHL, WSU-NHL cell line (hematological)): 4.87 µM
- IC50 (MT-3, 72 h, MT3 cell line (breast)): 3.9 µM
- IC50 (NCI-H358M, NCIH358M cell line (lung)): 2.63 µM
- IC50 (PBMC, PBMC (hematological)): > 50 µM
- IC50 (RD-ES, RDES cell line (bone)): 4.48 µM
